Measurements: ChEMBL document CHEMBL1255439 (2010)
The source made the active and inactive calls. No cut-off for these calls is given here.

Assays:
[1] = tested on: Burkholderia pseudomallei; assay: Antibacterial activity against Burkholderia pseudomallei 1026b infected in BALB/c mouse assessed as survival rate at 25 mg/kg, ip administered 6 hrs postinfection at 12 hrs interval for 3 days measured on day 20; type: functional; settings: route intraperitoneal
[2] = tested on: Burkholderia pseudomallei; assay: Antibacterial activity against Burkholderia pseudomallei 1026b infected in BALB/c mouse assessed as protection against bacterial infection at 25 mg/kg, ip administered as single dose 6 hrs postinfection; type: functional; settings: route intraperitoneal
[3] = tested on: Burkholderia pseudomallei; assay: Antibacterial activity against Burkholderia pseudomallei 1026b infected in mouse AMJ.2 cells assessed as inhibition of bacterial replication at <= 10 ug/ml after 24 hrs by serial dilution plating technique; type: functional, organism-based
[4] = tested on: Burkholderia pseudomallei; assay: Antibacterial activity against Burkholderia pseudomallei 1026b infected in mouse AMJ.2 cells assessed as decrease in intracellular bacterial growth at 10 ug/ml after 24 hrs by serial dilution plating technique in presence of 1 U/ml murine recombinant IFN-gamma; type: functional, organism-based
[5] = tested on: Burkholderia pseudomallei; assay: Antibacterial activity against Burkholderia pseudomallei 1026b infected in mouse AMJ.2 cells assessed as decrease in intracellular bacterial growth at 1 ug/ml after 24 hrs by serial dilution plating technique in presence of 100 U/ml murine recombinant IFN-gamma; type: functional, organism-based
[6] = tested on: Burkholderia pseudomallei; assay: Antibacterial activity against Burkholderia pseudomallei 1026b infected in mouse AMJ.2 cells assessed as intracellular bacterial count at 10 ug/ml measured on 24 hrs postinfection by serial dilution plating technique (reference value: 2 X 10^4 CFU/ml); type: functional
[7] = tested on: Burkholderia pseudomallei; assay: Antibacterial activity against Burkholderia pseudomallei 1026b infected in BALB/c mouse assessed as increase survival rate at 25 mg/kg, ip administered 6 hrs postinfection at 12 hrs interval for 3 days measured on day 20; type: functional, organism-based; parameters: dose 25 mg/kg
[8] = tested on: Burkholderia pseudomallei; assay: Antibacterial activity against Burkholderia pseudomallei 1026b infected in BALB/c mouse assessed as increase in survival rate at 25 mg/kg, ip administered 6 hrs postinfection at 12 hrs interval for 3 days measured on day 60 in presence of murine recombinant IFN-gamma; type: functional, organism-based; parameters: dose 25 mg/kg
[9] = tested on: Burkholderia pseudomallei; assay: Antibacterial activity against Burkholderia pseudomallei 1026b infected in BALB/c mouse assessed as decrease in bacterial count in spleen at 25 mg/kg, ip administered 6 hrs postinfection at 12 hrs interval for 3 days measured on day 65 in presence of murine recombinant IFN-gamma; type: functional, organism-based; parameters: dose 25 mg/kg

CC(C)(O/N=C(\C(=O)N[C@@H]1C(=O)N2C(C(=O)[O-])=C(C[n+]3ccccc3)CS[C@H]12)c1csc(N)n1)C(=O)O [CEFTAZIDIME]
Activity [1]: 10% | Activity [2]: 20% | inhibition [3]: inactive | inhibition [4]: Active | inhibition [5]: Active | CFU [6]: >1 ×10⁶ /ml | Activity [7]: inactive | Activity [8]: Active | inhibition [9]: Active
